Experimental data from patent publication US9815794B2, “Inhibition of bacterial biofilms and microbial growth with imidazole derivatives” (North Carolina State University, priority 2011, dated 2017).
In brackets after ≈: the same amount, converted by molar mass.

Legend:
MSSA = assay: Dispersion of pre-formed biofilms; type: cell-based, S. aureus; conditions: Staphylococcus aureus, read-out: EC50, 50% dispersion of a pre-formed biofilm
Procedure: (§1) The ability of 15 and 19 to disperse pre-formed biofilms was also determined for all of the aforementioned bacterial strains (both marine and terrestrial). To quantify this effect, the EC50 value of each compound against each bacterial strain was determined, where EC50 is defined as the concentration of compound that elicits 50% dispersion of a pre-formed biofilm. Both compounds are able to disperse pre-formed biofilms at low micromolar concentrations. These concentrations are also microbicidal to planktonic bacteria. […]
(§2) Preformed Biofilms: Dispersion assays were performed by taking an overnight culture of bacterial strain and subculturing it at an OD600 of 0.01 into the necessary medium (brain heart infusion for E. faecium, tryptic soy broth with a 0.5% glucose supplement (TSBG) for MRSA, S. aureus and S. epidermidis, Luria-Bertani (LB) medium for MDRAB and E. coli, and tryptic soy broth with a 0.5% glucose supplement and a 3.0% NaCl supplement (TGN) for R. salexigens, V. cholerae, V. vulnificus and L. anguillarum.) The resulting bacterial suspension was aliquoted (100 μL) into the wells of a 96-well PVC microtiter plate. […] Biofilm dispersion was quantitated by measuring the OD540 of each well in which a negative control lane wherein no biofilm was formed served as a background and was subtracted out.

MRSA [1] = assay: Dispersion of pre-formed biofilms; type: cell-based, methicillin-resistant S. aureus; conditions: Staphylococcus aureus, read-out: EC50, 50% dispersion of a pre-formed biofilm
Procedure: as §1, §2

VRE [2] = assay: Dispersion of pre-formed biofilms; type: cell-based, E. faecium (VRE); conditions: Enterococcus, read-out: EC50, 50% dispersion of a pre-formed biofilm
Procedure: as §1, §2

S. epidermidis [3] = assay: Broth microdilution MIC; type: cell-based; conditions: Staphylococcus epidermidis, read-out: MIC
Procedure: (§3) Once it was determined that this specific 4,5-disubstitution pattern imparted microbicidal activity onto the 2-AI framework, this activity was quantified by measuring the MIC of each derivative against a variety of representative pathogenic bacterial strains using the microdilution protocol (CSLI, Performance Standards for Antimicrobial Suceptibility Testing; Nineteenth Informational Supplement, Clinical and Laboratory Standards Institute, Wayne, Pa., 2009). E. coli, MDRAB, P. aeruginosa, MRSA, MSSA, S. epidermidis and VRE were used for initial evaluation. From this screen, compound 15 was determined to be the lead compound and had MIC values (μg/mL) of 2, 2, 1, 0.5, 0.25, and 1 against E. coli, MDRAB, MRSA, VRE, S. Epidermidis and MSSA.
(§4) S. aureus (ATCC #29213), S. epidermidis (ATCC #29886), MRSA (ATCC # BAA-44), MDRAB (ATCC # BAA-1605), vancomycin resistant Enterococcus faecium (VRE) (ATCC #51559) and E. coli (ATCC #35695) were obtained from the ATCC. Mechanically difibrinated sheep blood (DSB100) was obtained from Hemostat Labs. Mueller-Hinton medium was purchased from Fluka (#70192).
(§5) Broth Microdilution Method for MIC Determination.

MDRAB [4] = assay: Broth microdilution MIC; type: cell-based
Procedure: as §3, §4, §5

E. coli [5] = assay: Broth microdilution MIC; type: cell-based; conditions: Escherichia coli
Procedure: as §3, §4, §5

L. anguillarum = assay: Dispersion of pre-formed biofilms; type: cell-based, Listonella anguillarum; conditions: Vibrio anguillarum, read-out: EC50, 50% dispersion of a pre-formed biofilm
Procedure: as §1, §2

Vibrio cholerae = assay: Marine bacteria microdilution MIC; type: cell-based; conditions: V. cholerae
V. cholerae = assay: Dispersion of pre-formed biofilms; type: cell-based; conditions: Vibrio cholerae, read-out: EC50, 50% dispersion of a pre-formed biofilm
Procedure: (§6) The ability of 15 and 19 to disperse pre-formed biofilms was also determined for all of the aforementioned bacterial strains (both marine and terrestrial). To quantify this effect, the EC50 value of each compound against each bacterial strain was determined, where EC50 is defined as the concentration of compound that elicits 50% dispersion of a pre-formed biofilm. Both compounds are able to disperse pre-formed biofilms at low micromolar concentrations. These concentrations are also microbicidal to planktonic bacteria.
(§7) Procedure to Determine the Dispersal Effect of Test Compounds on E. faecium (VRE), MRSA, S. aureus, S. epidermidis, E. coli, R. salexigens, V. cholerae, V. vulnificus and L. anguillarum
(§8) Preformed Biofilms: Dispersion assays were performed by taking an overnight culture of bacterial strain and subculturing it at an OD600 of 0.01 into the necessary medium (brain heart infusion for E. faecium, tryptic soy broth with a 0.5% glucose supplement (TSBG) for MRSA, S. aureus and S. epidermidis, Luria-Bertani (LB) medium for MDRAB and E. coli, and tryptic soy broth with a 0.5% glucose supplement and a 3.0% NaCl supplement (TGN) for R. salexigens, V. cholerae, V. vulnificus and L. anguillarum.) The resulting bacterial suspension was aliquoted (100 μL) into the wells of a 96-well PVC microtiter plate. Plates were then wrapped in GLAD Press n' Seal® followed by an incubation under stationary conditions at 37° C. to establish the biofilms. After 24 h, the medium was discarded from the wells and the plates were washed thoroughly with water. Stock solutions of predetermined concentrations of the test compound were then made in the necessary medium. These stock solutions were aliquoted (100 μL) into the wells of the 96-well PVC microtiter plate with the established biofilms. Medium alone was added to a subset of the wells to serve as a control. Sample plates were then incubated for 24 h at 37° C. After incubation, the medium was discarded from the wells and the plates were washed thoroughly with water. Plates were then stained with 100 μL of 0.1% solution of crystal violet (CV) and then incubated at ambient temperature for 30 min. Plates were washed with water again and the remaining stain was solubilized with 200 μL of 95% ethanol. A sample of 125 μL of solubilized CV stain from each well was transferred to the corresponding wells of a polystyrene microtiter dish. Biofilm dispersion was quantitated by measuring the OD540 of each well in which a negative control lane wherein no biofilm was formed served as a background and was subtracted out.

S. epidermidis [6] = assay: Dispersion of pre-formed biofilms; type: cell-based; conditions: Staphylococcus epidermidis, read-out: EC50, 50% dispersion of a pre-formed biofilm
Procedure: as §6, §7, §8

MDRAB [7] = assay: Dispersion of pre-formed biofilms; type: cell-based; conditions: read-out: EC50, 50% dispersion of a pre-formed biofilm
Procedure: as §6, §7, §8

E. coli [8] = assay: Dispersion of pre-formed biofilms; type: cell-based; conditions: Escherichia coli, read-out: EC50, 50% dispersion of a pre-formed biofilm
Procedure: as §6, §7, §8

V. vulnificus = assay: Dispersion of pre-formed biofilms; type: cell-based; conditions: Vibrio vulnificus, read-out: EC50, 50% dispersion of a pre-formed biofilm
Procedure: as §6, §7, §8

Listonella anguillarum = assay: Marine bacteria microdilution MIC; conditions: L. anguillarum
VRE [9] = assay: Broth microdilution MIC; type: cell-based, vancomycin resistant Enterococcus faecium; conditions: Enterococcus
Procedure: as §3, §4, §5

Vibrio vulnificus = assay: Marine bacteria microdilution MIC; conditions: V. vulnificus
R. salexigens = assay: Dispersion of pre-formed biofilms; type: cell-based, Rhodospirillum salexigens; conditions: Rhodothalassium salexigens, read-out: EC50, 50% dispersion of a pre-formed biofilm
Procedure: as §1, §2

MRSA [10] = assay: Broth microdilution MIC; type: cell-based, methicillin-resistant S. aureus; conditions: Staphylococcus aureus
Procedure: as §3, §4, §5

| SMILES | EC50 (MSSA) [µM] | EC50 (MRSA [1]) [µM] | EC50 (VRE [2]) [µM] | MIC (S. epidermidis [3]) [µg/mL] | MIC (MDRAB [4]) [µg/mL] | MIC (E. coli [5]) [µg/mL] | EC50 (L. anguillarum) [µM] | MIC (Vibrio cholerae) [µg/mL] | MIC (Vibrio cholerae; Vibrio cholerae) [µg/mL] | EC50 (V. cholerae) [µM] | EC50 (S. epidermidis [6]) [µM] | EC50 (MDRAB [7]) [µM] | EC50 (E. coli [8]) [µM] | EC50 (V. vulnificus) [µM] | MIC (Listonella anguillarum; Vibrio anguillarum) [µg/mL] | MIC (VRE [9]) [µg/mL] | MIC (Vibrio vulnificus; Vibrio vulnificus) [µg/mL] | EC50 (R. salexigens) [µM] | MIC (MRSA [10]) [µg/mL] | other results |
| --- | --- | --- | --- | --- | --- | --- | --- | --- | --- | --- | --- | --- | --- | --- | --- | --- | --- | --- | --- | --- |
| CCCCCc1[nH]c(N)nc1CCCCCc1ccccc1 [Compound 15, 5-pentyl-4-(5-phenylpentyl)-1H-imidazol-2-amine] | 19.9 ± 3.3 | 33.9 ± 3.9 | 17.3 ± 2.3 | 0.25 (≈ 0.835 µM) | 2 (≈ 6.68 µM) | 2 (≈ 6.68 µM) | 14.7 ± 1.7 | 4.20 (≈ 14 µM) | 4.2 (≈ 14 µM) | 7.12 ± 0.3 | 24.7 ± 5.8 | 7.1 ± 1.3 | 12 ± 1.6 | 18.1 ± 2.3 | 2.1 (≈ 7.01 µM) | 0.5 (≈ 1.67 µM) | 2.1 (≈ 7.01 µM) | 6.6 ± 1.1 | 1 (≈ 3.34 µM) | MIC (Listonella anguillarum): 2.10 µg/mL (≈ 7.01 µM); MIC (Vibrio vulnificus): 2.10 µg/mL (≈ 7.01 µM) |
| CCCCCCc1[nH]c(N)nc1CCCCCc1ccccc1 [Compound 19, 5-hexyl-4-(5-phenylpentyl)-1H-imidazol-2-amine] | 26.1 ± 0.7 | 74.9 ± 9.8 | 14.1 ± 0.2 | 0.5 (≈ 1.59 µM) | 4 (≈ 12.8 µM) | 2 (≈ 6.38 µM) | 13.8 ± 1.5 | 2.19 (≈ 6.99 µM) | 2.2 (≈ 7.02 µM) | 14.7 ± 1.8 | 17.7 ± 0.3 | 11.1 ± 0.1 | 42.5 ± 6.1 | 3.2 ± 1.3 | 2.2 (≈ 7.02 µM) | 0.5 (≈ 1.59 µM) | 2.2 (≈ 7.02 µM) | 17.6 ± 3.2 | 1 (≈ 3.19 µM) |  |
